According to patent publication EP0066373A1, “Beta-lactam derivatives, a process for their preparation and compositions containing them” (BEECHAM GROUP PLC, priority 1981, dated 1982):

Tests used:
Type in all cases: cell-based
E. coli NCTC 10418 = experiment: Antibacterial activity (MIC); settings: Escherichia coli
P. mirabilis C 977 = experiment: Antibacterial activity (MIC); settings: Proteus mirabilis, C977, Agar
K. aerogenes A = experiment: Antibacterial activity (MIC); settings: Klebsiella aerogenes
[1] = tested on: Ps. aeruginosa Dalgleish 10^-2; experiment: Antibacterial activity (MIC), 10^-2; settings: Pseudomonas aeruginosa, Agar
E. coli ESS = experiment: Antibacterial activity (MIC); settings: Escherichia coli, Agar
[2] = tested on: Ps. aeruginosa NCTC 10662 10^-2; experiment: Antibacterial activity (MIC), 10^-2; settings: Pseudomonas aeruginosa
E. coli JT 4 = experiment: Antibacterial activity (MIC); settings: Escherichia coli, JT4, Agar
E. coli JT 425 = experiment: Antibacterial activity (MIC); settings: Escherichia coli, JT425, Agar
S. marcescens US 32 = experiment: Antibacterial activity (MIC); settings: Serratia marcescens, US32, Agar
[3] = tested on: Ps. aeurginosa NCTC 10662; experiment: Antibacterial activity (MIC)
E. cloacae N1 = experiment: Antibacterial activity (MIC); settings: Enterobacter cloacae, Agar

SMILES	MIC (E. coli NCTC 10418; NCTC10418, Agar)	MIC (E. coli NCTC 10418; NCTC10418, Broth)	MIC (P. mirabilis C 977)	MIC (K. aerogenes A; Agar)	MIC (K. aerogenes A; Broth)	MIC [1]	MIC (E. coli ESS)	MIC ([2]; NCTC10662, Agar)	MIC ([2]; NCTC10662, Broth)	MIC (E. coli JT 4)	MIC (E. coli JT 425)	MIC (S. marcescens US 32)	MIC ([3]; Agar)	MIC ([3]; Broth)	MIC (E. cloacae N1)
CO[C@@]1(NC(=O)[C@@H](c2ccc(OC(C)=O)c(OC(C)=O)c2)S(=O)(=O)O)C(=O)N2[C@@H](C(=O)O)C(C)(C)S[C@@H]21 [Example 8, Disodium 6,β-[R-2-(3,4-diacetoxyphenyl)-2-sulphoacetamido]-6,a-methoxypenicillanate]	2.5 µg/mL	5 µg/mL	10 µg/mL	5 µg/mL	10 µg/mL	0.5 µg/mL	0.2 µg/mL	0.5 µg/mL	0.5 µg/mL	2.5 µg/mL	1 µg/mL	25 µg/mL	2.5 µg/mL	1 µg/mL	25 µg/mL
CO[C@@]1(NC(=O)C(c2ccc(O)c(O)c2)S(=O)(=O)O)C(=O)N2[C@@H](C(=O)O)C(C)(C)S[C@@H]21 (stereo partly drawn) [Example 4, Disodium 6,β-[R,S-2-(3,4-dihydroxyphenyl)-2-sulphoacetamido]-6,a-methoxypenicillanate]	5 µg/mL	–	25 µg/mL	5 µg/mL	–	2.5 µg/mL	0.5 µg/mL	5 µg/mL	–	5 µg/mL	5 µg/mL	25 µg/mL	2.5 µg/mL	–	50 µg/mL
CO[C@@]1(NC(=O)C(c2ccc(OC(C)=O)c(OC(C)=O)c2)S(=O)(=O)O)C(=O)N2[C@@H](C(=O)O)C(C)(C)S[C@@H]21 (stereo partly drawn) [Example 3, Disodium 6,β-[R,S-2-(3,4-diacetoxyphenyl)-2-sulphoacetamido]-6,a-methoxypenicillanate]	2.5 µg/mL	5 µg/mL	25 µg/mL	10 µg/mL	25 µg/mL	2.5 µg/mL	0.2 µg/mL	2.5 µg/mL	5 µg/mL	2.5 µg/mL	2.5 µg/mL	25 µg/mL	2.5 µg/mL	5 µg/mL	50 µg/mL
CO[C@@]1(NC(=O)[C@@H](c2ccc(O)c(O)c2)S(=O)(=O)O)C(=O)N2[C@@H](C(=O)O)C(C)(C)S[C@@H]21 [Example 9, Disodium 6,β-[R-2-(3,4-dihydroxyphenyl)-2-sulphoacetamido] -6,a-methoxypenicillanate]	2.5 µg/mL	–	25 µg/mL	5 µg/mL	–	0.5 µg/mL	0.1 µg/mL	0.5 µg/mL	–	2.5 µg/mL	1 µg/mL	25 µg/mL	2.5 µg/mL	–	50 µg/mL
